Measured values as given in paper PMC7702303, “Biochemical and transcript level differences between the three human phosphofructokinases show optimisation of each isoform for specific metabolic niches” (Biochemical Journal, 2020).
Several values for one entry are separate records, joined by “and”; a condition that tells them apart may be missing. Identical values can stand only once. Like-named read-outs stand apart in the source and are kept apart here.

How the values were obtained:
PFK = system: PFK; design: key to Effect (activator or inhibitor of PFK): “+” indicates activator; “-“ indicates inhibitor; details: cited from earlier work; for Effect (activator or inhibitor of PFK): published literature, ref selected references in Supplementary Table 1; for IC50: asterisk not explained, ref Moreno-Sanchez et al., 2012, read-out: IC50 or AC50 (inhibitor)
recombinant human PFK-M = target: T1, recombinant human PFK-M (Homo sapiens, UniProt P08237); test: ALDO-TIM-G3PDH enzyme-linked kinetic assay, PFK-M; format: biochemical; details: for change in kcat^ATP/K0.5^ATP compared with control PFK without modulator / change in kcat^F6P/K0.5^F6P compared with control PFK without modulator: modulator 600 µM
T1 construct: made in house; host or cells: PFK-deficient Saccharomyces cerevisiae
T1 sequence (P08237 1-780): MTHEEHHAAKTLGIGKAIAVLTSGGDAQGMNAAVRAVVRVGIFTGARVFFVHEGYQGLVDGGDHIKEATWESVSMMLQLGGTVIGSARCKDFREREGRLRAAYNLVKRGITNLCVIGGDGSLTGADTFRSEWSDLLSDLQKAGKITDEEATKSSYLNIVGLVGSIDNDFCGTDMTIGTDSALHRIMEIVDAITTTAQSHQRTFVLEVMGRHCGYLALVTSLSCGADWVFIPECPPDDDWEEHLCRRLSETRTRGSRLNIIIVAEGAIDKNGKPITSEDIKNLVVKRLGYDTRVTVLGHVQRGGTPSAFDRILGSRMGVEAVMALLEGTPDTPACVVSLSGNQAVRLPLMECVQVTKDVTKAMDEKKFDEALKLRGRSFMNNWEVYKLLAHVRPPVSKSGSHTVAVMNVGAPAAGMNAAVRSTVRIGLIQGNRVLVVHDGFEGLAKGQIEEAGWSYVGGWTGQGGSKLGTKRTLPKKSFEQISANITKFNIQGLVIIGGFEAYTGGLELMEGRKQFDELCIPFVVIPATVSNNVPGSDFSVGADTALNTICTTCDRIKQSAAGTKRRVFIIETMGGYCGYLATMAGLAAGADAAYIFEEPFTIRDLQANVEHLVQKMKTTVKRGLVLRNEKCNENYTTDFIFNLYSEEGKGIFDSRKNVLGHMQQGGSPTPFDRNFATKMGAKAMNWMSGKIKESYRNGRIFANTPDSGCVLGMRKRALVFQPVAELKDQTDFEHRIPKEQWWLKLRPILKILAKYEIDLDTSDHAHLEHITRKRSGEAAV
Description: (§1) Recombinant human PFKs were expressed in PFK-deficient Saccharomyces cerevisiae and purified using the methods described previously, adapting earlier materials and protocols. Production of PFK intended for use in ATP titration experiments used 1 mM F6P as a tetramer stabilising agent in protein purification and storage buffers. Production of PFK intended for use in F6P titration experiments used 1 mM ATP as a tetramer stabilising agent in protein purification and storage buffers. Experimental details on the purification and characterisation procedures including figures showing SDS–PAGE gels of the highly pure PFKs used in the kinetic experiments described in this work have been recently published.
(§2) Assay buffer consisted of 50 mM TEA, 100 mM KCl, 10 mM MgCl2, 1 mM Tris(2-carboxyethyl)phosphine hydrochloride (TCEP), 10% glycerol, pH 7.4. Assay mix consisted of 5 units/ml glycerol-3-phosphate dehydrogenase (G3PDH, Sigma–Aldrich G6880), 2.5 units/ml aldolase (Sigma–Aldrich A2714), 25 units/ml triosephosphate isomerase (TIM, Sigma–Aldrich T6258), and 1.25 mM NADH. ATP and F6P were obtained from Sigma–Aldrich (A2383 and F3627, respectively). For ATP titrations, 38 µl of buffer or ligand were added to a clear non-binding 96-well plate. 40 µl of assay mix containing 10 mM F6P (final concentration 4 mM) was added and the plate was incubated at 25°C for 5 min. An amount of 2 µl of PFK isoforms were added to each well from stock concentrations of 150 µg/ml and the reaction was immediately started with 20 µl of ATP at varying concentrations. For F6P titrations, 30 µl of buffer or ligand was added to a clear non-binding 96-well plate. An amount of 40 µl of assay mix containing 1.25 mM ATP (final concentration 0.5 mM) was added and the plate was incubated at 25°C for 5 min. An amount of 5 µl of PFK isoforms were added to each well from stock concentrations of 200 µg/ml and the reaction was immediately started with 20 µl F6P at varying concentrations. All ligands and substrates (including ATP) were used at pH 7.4. All metabolites were obtained from Sigma–Aldrich unless otherwise stated. […] A SpectraMax M5 Multi-Mode Microplate Reader was used to measure A340nm at 13 s intervals for 10 min. All experiments were performed in triplicate unless otherwise stated.
(§3) Time-dependent absorbance change was converted into rate of NADH oxidation (µM s^−1) or specific activity (µmol min^−1 mg protein^−1) using the Beer-Lambert law (molar extinction coefficient of NADH 6.22 mM^−1 cm^−1). The initial rate of reaction was used to avoid accumulation of ADP, which activates PFK, interfering with the determination of kinetic properties. Non-linear regression analysis was performed on substrate titration data using GraphPad Prism 7, with curves fitted using allosteric sigmoidal models, enabling determination of steady-state kinetic values.

recombinant human PFK-P = target: T2, recombinant human PFK-P (Homo sapiens, UniProt Q01813); test: ALDO-TIM-G3PDH enzyme-linked kinetic assay, PFK-P; format: biochemical; details: for change in kcat^ATP/K0.5^ATP compared with control PFK without modulator / change in kcat^F6P/K0.5^F6P compared with control PFK without modulator / K0.5F6P + modulator / VmaxF6P + modulator / K0.5ATP + modulator / VmaxATP + modulator: modulator 600 µM; for K0.5F6P + modulator / VmaxF6P + modulator: ATP 0.5mM
T2 construct: made in house; host or cells: PFK-deficient Saccharomyces cerevisiae
T2 sequence (Q01813 1-784): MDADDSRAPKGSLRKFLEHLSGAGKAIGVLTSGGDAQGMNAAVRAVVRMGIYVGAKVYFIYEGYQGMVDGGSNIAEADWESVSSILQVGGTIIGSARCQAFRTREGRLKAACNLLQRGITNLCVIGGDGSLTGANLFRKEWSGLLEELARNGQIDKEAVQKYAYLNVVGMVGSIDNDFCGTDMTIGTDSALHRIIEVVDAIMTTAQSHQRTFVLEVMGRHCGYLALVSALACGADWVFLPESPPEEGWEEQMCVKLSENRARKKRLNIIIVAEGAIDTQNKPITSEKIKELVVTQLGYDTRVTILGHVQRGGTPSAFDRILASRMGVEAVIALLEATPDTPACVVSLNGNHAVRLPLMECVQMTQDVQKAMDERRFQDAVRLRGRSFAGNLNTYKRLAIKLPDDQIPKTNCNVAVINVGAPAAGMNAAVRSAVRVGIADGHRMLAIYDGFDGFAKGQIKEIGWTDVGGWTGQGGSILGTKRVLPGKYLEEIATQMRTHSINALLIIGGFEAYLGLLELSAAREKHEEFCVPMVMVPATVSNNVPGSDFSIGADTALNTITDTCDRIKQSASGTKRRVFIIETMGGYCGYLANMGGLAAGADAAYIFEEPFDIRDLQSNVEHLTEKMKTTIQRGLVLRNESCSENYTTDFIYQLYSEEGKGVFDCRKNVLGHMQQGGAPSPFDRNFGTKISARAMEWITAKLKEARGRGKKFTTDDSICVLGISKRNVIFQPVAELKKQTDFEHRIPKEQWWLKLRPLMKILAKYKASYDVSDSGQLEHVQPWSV
Description: as §1, §2, §3

[1] = second of three values marked *
[2] = dose-response, read-out: IC50^citrate
[3] = 1 mM ATP compared with 0.5 mM ATP
[4] = ATP titration, F6P 4 mM, n = 6, mean (SD)
[5] = Hill value, ATP titration, F6P 4 mM, n = 6, mean (SD)
[6] = control without modulator, run alongside modulator experiments, F6P 4mM, N=3, mean (SD)

Row | change in kcat^ATP/K0.5^ATP compared with control PFK without modulator (recombinant human PFK-M) | change in kcat^F6P/K0.5^F6P compared with control PFK without modulator (recombinant human PFK-M) [%] | change in kcat^ATP/K0.5^ATP compared with control PFK without modulator (recombinant human PFK-P) | change in kcat^F6P/K0.5^F6P compared with control PFK without modulator (recombinant human PFK-P) | K0.5F6P + modulator (recombinant human PFK-P; N=3, mean (SD)) | VmaxF6P + modulator (recombinant human PFK-P; N=3, mean (SD)) | K0.5ATP + modulator (recombinant human PFK-P; F6P 4mM, N=3, mean (SD)) | VmaxATP + modulator (recombinant human PFK-P; F6P 4mM, N=3, mean (SD)) | Compound | Effect (activator or inhibitor of PFK) (PFK) | IC50 (PFK; first of three values marked *) [µM] | IC50 (PFK; [1]) [µM] | IC50 (PFK; third of three values marked *) [µM] | also measured
1 | −52% | −13 | +39% | +129% | 821.7 (53.4) M | 2.51 (0.11) moles/min/mg | 290.5 (36.0) M | 37.99 (1.74) moles/min/mg | Nc1ncnc2c1ncn2[C@@H]1O[C@H](COP(=O)(O)OP(=O)(O)O)[C@@H](O)[C@H]1O [ADP] | + |  |  |  | effect on PFK activity, in words (recombinant human PFK-M): inhibiting; effect on PFK activity, in words (recombinant human PFK-P): activating
2 | +5% | −36 | +136% | −78% | 1494 (627) M | 0.43 (0.12) moles/min/mg | 46.0 (14.4) M | 10.18 (0.89) moles/min/mg | O=C(O)CC(O)(CC(=O)O)C(=O)O [Citrate] | - | 5900 | 490 | 6700 | IC50 (recombinant human PFK-M; [2]): 982 ± 109 µM; IC50 (recombinant human PFK-P; [2]): 177 ± 132 µM
3 |  |  |  |  |  |  |  |  | Nc1ncnc2c1ncn2[C@@H]1O[C@H](COP(=O)(O)OP(=O)(O)OP(=O)(O)O)[C@@H](O)[C@H]1O [ATP] | - | 1100 | 2900 | 1750 | decrease in specificity constant (ATP inhibition) (recombinant human PFK-M; [3]): 21%; increase in specific activity (recombinant human PFK-M; ATP concentration from 0.25 mM to 0.5 mM): 23%; decrease in specific activity (recombinant human PFK-M; ATP concentration from 0.5 mM to 1 mM): 21%; K0.5^ATP (recombinant human PFK-M; [4]): 151 µM and 152 µM and 151.8 (10.0) µM; Vmax^ATP (recombinant human PFK-M; [4]): 38.4 (0.9) µmoles/min.mg; kcat^ATP (recombinant human PFK-M; [4]): 56.0 (1.2) s^−1; kcat^ATP/K0.5^ATP (recombinant human PFK-M; [4]): 0.37 s^−1 µM^−1 and 0.37 (0.12) s^−1 µM^−1; h (ATP) (recombinant human PFK-M; [5]): 1.03 (0.05); decrease in specificity constant (ATP inhibition) (recombinant human PFK-P; [3]): 50%; K0.5^ATP (recombinant human PFK-P; [4]): 275 µM and 276 µM and 275.6 (84.4) µM; Vmax^ATP (recombinant human PFK-P; [4]): 27.2 (2.5) µmoles/min.mg; kcat^ATP (recombinant human PFK-P; [4]): 39.7 (1.7) s^−1; kcat^ATP/K0.5^ATP (recombinant human PFK-P; [4]): 0.14 s^−1 µM^−1 and 0.14 (0.02) s^−1 µM^−1; h (ATP) (recombinant human PFK-P; [5]): 0.76 (0.09); K0.5ATP (recombinant human PFK-P; [6]): 326.9 (99.7) M and 217.9 (74.5) M; VmaxATP (recombinant human PFK-P; [6]): 30.74 (2.92) moles/min/mg and 23.65 (2.40) moles/min/mg
